In brackets after ≈: the same amount, converted by molar mass.
How the values were obtained:
Shigella flexneri [1] = test: Antibacterial activity against Shigella flexneri assessed as growth inhibition at 1 mg/well after 24 hrs by Well method; assay type: functional
Salmonella typhimurium [2] = test: Antibacterial activity against Salmonella typhimurium assessed as growth inhibition at 1 mg/well after 24 hrs by Well method; assay type: functional, Salmonella enterica subsp. enterica serovar Typhimurium
Malassezia pachydermatis [3] = test: Antifungal activity against Malassezia pachydermatis after 48 to 72 hrs by two fold serial dilution method; assay type: functional
Staphylococcus aureus [4] = test: Antibacterial activity against Staphylococcus aureus assessed as growth inhibition at 1 mg/well after 24 hrs by Well method; assay type: functional
Klebsiella aerogenes [5] = test: Antibacterial activity against Enterobacter aerogenes after 24 hrs by two fold serial dilution method; assay type: functional
Bacillus subtilis [6] = test: Antibacterial activity against Bacillus subtilis after 24 hrs by two fold serial dilution method; assay type: functional
Pseudomonas aeruginosa [7] = test: Antibacterial activity against Pseudomonas aeruginosa assessed as growth inhibition at 1 mg/well after 24 hrs by Well method; assay type: functional
Candida albicans [8] = test: Antifungal activity against Candida albicans after 48 to 72 hrs by two fold serial dilution method; assay type: functional
Micrococcus luteus [9] = test: Antibacterial activity against Micrococcus luteus after 24 hrs by two fold serial dilution method; assay type: functional
[10] = test system: Staphylococcus epidermidis; test: Antibacterial activity against Staphylococcus epidermidis assessed as growth inhibition at 1 mg/well after 24 hrs by Well method; assay type: functional
Proteus vulgaris [11] = test: Antibacterial activity against Proteus vulgaris after 24 hrs by two fold serial dilution method; assay type: functional
[12] = test system: Staphylococcus epidermidis; test: Antibacterial activity against Staphylococcus epidermidis after 24 hrs by two fold serial dilution method; assay type: functional
Staphylococcus aureus [13] = test: Antibacterial activity against methicillin-resistant Staphylococcus aureus assessed as growth inhibition at 1 mg/well after 24 hrs by Well method; assay type: functional
Malassezia pachydermatis [14] = test: Antifungal activity against Malassezia pachydermatis assessed as growth inhibition at 1 mg/well after 48 hrs by Well method; assay type: functional
Pseudomonas aeruginosa [15] = test: Antibacterial activity against Pseudomonas aeruginosa after 24 hrs by two fold serial dilution method; assay type: functional
Staphylococcus aureus [16] = test: Antibacterial activity against Staphylococcus aureus after 24 hrs by two fold serial dilution method; assay type: functional
Salmonella typhimurium [17] = test: Antibacterial activity against Salmonella typhimurium after 24 hrs by two fold serial dilution method; assay type: functional, Salmonella enterica subsp. enterica serovar Typhimurium; conditions: Salmonella enterica
Klebsiella aerogenes [18] = test: Antibacterial activity against Enterobacter aerogenes assessed as growth inhibition at 1 mg/well after 24 hrs by Well method; assay type: functional
Klebsiella pneumoniae [19] = test: Antibacterial activity against Klebsiella pneumoniae after 24 hrs by two fold serial dilution method; assay type: functional
Proteus vulgaris [20] = test: Antibacterial activity against Proteus vulgaris assessed as growth inhibition at 1 mg/well after 24 hrs by Well method; assay type: functional
Klebsiella pneumoniae [21] = test: Antibacterial activity against Klebsiella pneumoniae assessed as growth inhibition at 1 mg/well after 24 hrs by Well method; assay type: functional
Micrococcus luteus [22] = test: Antibacterial activity against Micrococcus luteus assessed as growth inhibition at 1 mg/well after 24 hrs by Well method; assay type: functional
Shigella flexneri [23] = test: Antibacterial activity against Shigella flexneri after 24 hrs by two fold serial dilution method; assay type: functional
Staphylococcus aureus [24] = test: Antibacterial activity against methicillin-resistant Staphylococcus aureus after 24 hrs by two fold serial dilution method; assay type: functional
Bacillus subtilis [25] = test: Antibacterial activity against Bacillus subtilis assessed as growth inhibition at 1 mg/well after 24 hrs by Well method; assay type: functional
Candida albicans [26] = test: Antifungal activity against Candida albicans assessed as growth inhibition at 1 mg/well after 48 hrs by Well method; assay type: functional
[27] = test system: Salmonella enterica subsp. enterica serovar Paratyphi B; test: Antibacterial activity against Salmonella paratyphi B assessed as growth inhibition at 1 mg/well after 24 hrs by Well method; assay type: functional
Aspergillus flavus [28] = test: Antifungal activity against Aspergillus flavus assessed as growth inhibition at 1 mg/well after 48 hrs by Well method; assay type: functional
Aspergillus flavus [29] = test: Antifungal activity against Aspergillus flavus after 48 to 72 hrs by two fold serial dilution method; assay type: functional

Structure (SMILES)	inhibition zone (IZ) (Shigella flexneri [1])	inhibition zone (IZ) (Salmonella typhimurium [2])	inhibition zone (IZ) (Staphylococcus aureus [4])	MIC (Klebsiella aerogenes [5])	MIC (Bacillus subtilis [6])	inhibition zone (IZ) (Pseudomonas aeruginosa [7])	MIC (Micrococcus luteus [9])	inhibition zone (IZ) [10]	MIC (Proteus vulgaris [11])	MIC [12]	inhibition zone (IZ) (Staphylococcus aureus [13])	MIC (Pseudomonas aeruginosa [15])	MIC (Staphylococcus aureus [16])	MIC (Salmonella typhimurium [17])	inhibition zone (IZ) (Klebsiella aerogenes [18])	inhibition zone (IZ) (Proteus vulgaris [20])	inhibition zone (IZ) (Micrococcus luteus [22])	MIC (Shigella flexneri [23])	MIC (Staphylococcus aureus [24])	inhibition zone (IZ) (Bacillus subtilis [25])	further results
C[C@@H](NCCC(=O)c1ccc(Cl)cc1)[C@@H](O)c1ccccc1.Cl	30 mm	30 mm	36 mm	3.13 µg/mL	12.5 µg/mL	23 mm	6.25 µg/mL	36 mm	3.13 µg/mL	3.13 µg/mL	33 mm	12.5 µg/mL	3.13 µg/mL	6.25 µg/mL	34 mm	32 mm	29 mm	6.25 µg/mL	3.13 µg/mL	24 mm	MIC (Malassezia pachydermatis [3]): 50 µg/mL; MIC (Candida albicans [8]): 12.5 µg/mL; inhibition zone (IZ) (Malassezia pachydermatis [14]): 15 mm; MIC (Klebsiella pneumoniae [19]): 50 µg/mL; inhibition zone (IZ) (Klebsiella pneumoniae [21]): 18 mm; inhibition zone (IZ) (Candida albicans [26]): 24 mm
C[C@H](NCCC(=O)c1ccccc1)[C@H](O)c1ccccc1.Cl	20 mm	26 mm	27 mm	6.25 µg/mL	25 µg/mL	20 mm	6.25 µg/mL	34 mm	12.5 µg/mL	3.13 µg/mL	27 mm	25 µg/mL	12.5 µg/mL	12.5 µg/mL	28 mm	25 mm	30 mm	50 µg/mL	12.5 µg/mL	18 mm	MIC (Malassezia pachydermatis [3]): > 50 µg/mL; MIC (Candida albicans [8]): 50 µg/mL; inhibition zone (IZ) (Malassezia pachydermatis [14]): 12 mm; MIC (Klebsiella pneumoniae [19]): 25 µg/mL; inhibition zone (IZ) (Klebsiella pneumoniae [21]): 21 mm; inhibition zone (IZ) (Candida albicans [26]): 16 mm
C[C@@H](NCCC(=O)c1ccccc1)[C@@H](O)c1ccccc1.Cl	22 mm	22 mm	22 mm	50 µg/mL	25 µg/mL	22 mm	12.5 µg/mL	26 mm	25 µg/mL	12.5 µg/mL	28 mm	12.5 µg/mL	25 µg/mL	25 µg/mL	20 mm	24 mm	28 mm	25 µg/mL	6.25 µg/mL	20 mm	MIC (Malassezia pachydermatis [3]): 50 µg/mL; MIC (Candida albicans [8]): 50 µg/mL; inhibition zone (IZ) (Malassezia pachydermatis [14]): 14 mm; MIC (Klebsiella pneumoniae [19]): 50 µg/mL; inhibition zone (IZ) (Klebsiella pneumoniae [21]): 19 mm; inhibition zone (IZ) (Candida albicans [26]): 15 mm
COc1ccc(C(=O)CCN[C@H](C)[C@@H](O)c2ccccc2)cc1.Cl	24 mm	18 mm	20 mm	12.5 µg/mL	25 µg/mL	18 mm	12.5 µg/mL	24 mm	12.5 µg/mL	6.25 µg/mL	22 mm	25 µg/mL	12.5 µg/mL	25 µg/mL	19 mm	22 mm	19 mm	25 µg/mL	6.25 µg/mL	22 mm	MIC (Malassezia pachydermatis [3]): > 50 µg/mL; inhibition zone (IZ) [27]: 14 mm; MIC (Klebsiella pneumoniae [19]): > 50 µg/mL; inhibition zone (IZ) (Klebsiella pneumoniae [21]): 16 mm; inhibition zone (IZ) (Aspergillus flavus [28]): 16 mm; MIC (Aspergillus flavus [29]): 50 µg/mL
C[C@H](NCCC(=O)c1ccc(Cl)cc1Cl)[C@H](O)c1ccccc1.Cl	31 mm	30 mm	36 mm	25 µg/mL	25 µg/mL	29 mm	25 µg/mL	35 mm	25 µg/mL	25 µg/mL	31 mm	25 µg/mL	25 µg/mL	25 µg/mL	34 mm	32 mm	35 mm	25 µg/mL	25 µg/mL	30 mm	MIC (Klebsiella pneumoniae [19]): > 50 µg/mL; MIC (Aspergillus flavus [29]): 25 µg/mL; inhibition zone (IZ) (Candida albicans [26]): 22 mm
Cc1ccc(C(=O)CCN[C@H](C)[C@@H](O)c2ccccc2)cc1.Cl	20 mm	25 mm	24 mm	12.5 µg/mL	12.5 µg/mL	23 mm	25 µg/mL	31 mm	6.25 µg/mL	3.13 µg/mL	28 mm	12.5 µg/mL	25 µg/mL	12.5 µg/mL	27 mm	28 mm	22 mm	50 µg/mL	6.25 µg/mL	22 mm	MIC (Klebsiella pneumoniae [19]): 50 µg/mL; inhibition zone (IZ) (Klebsiella pneumoniae [21]): 15 mm; inhibition zone (IZ) (Aspergillus flavus [28]): 20 mm; MIC (Aspergillus flavus [29]): 50 µg/mL
Cc1ccc(C(=O)CCN[C@@H](C)[C@H](O)c2ccccc2)cc1.Cl	22 mm	23 mm	22 mm	3.13 µg/mL	6.25 µg/mL	20 mm	3.13 µg/mL	24 mm	3.13 µg/mL	3.13 µg/mL	23 mm	3.13 µg/mL	3.13 µg/mL	3.13 µg/mL	24 mm	24 mm	22 mm	3.13 µg/mL	3.13 µg/mL	18 mm	inhibition zone (IZ) (Klebsiella pneumoniae [21]): 13 mm; inhibition zone (IZ) (Aspergillus flavus [28]): 22 mm; MIC (Aspergillus flavus [29]): 50 µg/mL
C[C@@H](NCCC(=O)c1cccc([N+](=O)[O-])c1)[C@@H](O)c1ccccc1.Cl	19 mm	18 mm	14 mm	50 µg/mL	25 µg/mL	17 mm	50 µg/mL	18 mm	50 µg/mL	50 µg/mL	16 mm	50 µg/mL	50 µg/mL	50 µg/mL	17 mm	20 mm	18 mm	50 µg/mL	50 µg/mL	18 mm	MIC (Malassezia pachydermatis [3]): 25 µg/mL; MIC (Candida albicans [8]): 50 µg/mL; inhibition zone (IZ) (Malassezia pachydermatis [14]): 21 mm; inhibition zone (IZ) (Candida albicans [26]): 15 mm
C[C@@H](NCCC(=O)c1cccc(O)c1)[C@@H](O)c1ccccc1.Cl	21 mm	20 mm	20 mm	25 µg/mL	25 µg/mL	20 mm	3.13 µg/mL	24 mm	25 µg/mL	25 µg/mL	22 mm	25 µg/mL	50 µg/mL	50 µg/mL	21 mm	22 mm	34 mm	25 µg/mL	25 µg/mL	20 mm	MIC (Malassezia pachydermatis [3]): > 50 µg/mL; inhibition zone (IZ) (Malassezia pachydermatis [14]): 14 mm; MIC (Klebsiella pneumoniae [19]): 50 µg/mL; inhibition zone (IZ) (Klebsiella pneumoniae [21]): 20 mm
C[C@H](NCCC(=O)c1cccc(O)c1)[C@H](O)c1ccccc1.Cl	22 mm	22 mm	24 mm	25 µg/mL	12.5 µg/mL	22 mm	3.13 µg/mL	28 mm	25 µg/mL	6.25 µg/mL	23 mm	12.5 µg/mL	25 µg/mL	25 µg/mL	22 mm	24 mm	35 mm	25 µg/mL	25 µg/mL	23 mm	MIC (Klebsiella pneumoniae [19]): 25 µg/mL; inhibition zone (IZ) (Klebsiella pneumoniae [21]): 24 mm
CC(=O)N1CCN(c2ccc(OCC3COC(Cn4ccnc4)(c4ccc(Cl)cc4Cl)O3)cc2)CC1 (stereo not given) [KETOCONAZOLE]																					MIC (Malassezia pachydermatis [3]): 25 µg/mL (≈ 47 µM); MIC (Candida albicans [8]): 25 µg/mL (≈ 47 µM); inhibition zone (IZ) (Malassezia pachydermatis [14]): 26 mm; inhibition zone (IZ) (Aspergillus flavus [28]): 24 mm; MIC (Aspergillus flavus [29]): < 12.5 µg/mL; inhibition zone (IZ) (Candida albicans [26]): 28 mm

Reference: ChEMBL document CHEMBL3616371, “Synthesis of BF₃ catalyzed Mannich derivatives with excellent ee from phenylpropanolamine, study of their antimicrobial activity and molecular docking” (2015)
